# Laboratory results: patent US9023865B2, “Compounds that are ERK inhibitors” (Merck Sharp & Dohme Corp., priority 2011, dated 2015)
# Target: Active Human ERK2 (hERK2) (Homo sapiens (Human), UniProt P28482)
# Assay: Active Human ERK2 (hERK2) Activity Assay (IMAP-FP)
# Format: biochemical
# Details: phosphorylated active hERK2, 30 μM ATP; average; read-out: ERK 2 Human average IC50
# In short: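 Reaction contains 0.5 nM activated hERK2, 900 nM unlabeled plus 80 nM labeled peptide and 30 μM ATP, run 60 min. Quenched with IMAP binding beads in buffer with 24 mM NaCl; fluorescence polarization read after 60 min binding equilibration.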
# Active Human ERK2 (hERK2), sequence (P28482 whole entry): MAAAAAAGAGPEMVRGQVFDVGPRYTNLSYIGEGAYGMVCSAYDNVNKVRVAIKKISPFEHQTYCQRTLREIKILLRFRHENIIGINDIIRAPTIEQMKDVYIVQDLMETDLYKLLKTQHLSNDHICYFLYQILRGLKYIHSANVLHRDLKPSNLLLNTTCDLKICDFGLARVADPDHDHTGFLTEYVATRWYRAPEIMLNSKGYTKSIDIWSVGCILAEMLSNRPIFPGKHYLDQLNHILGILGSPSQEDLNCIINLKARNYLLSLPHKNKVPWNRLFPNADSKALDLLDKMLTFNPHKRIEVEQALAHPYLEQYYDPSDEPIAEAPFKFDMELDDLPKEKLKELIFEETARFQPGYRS
row,SMILES,IC50 [nM]
1,Cc1cc(-c2n[nH]c3cc(NC(=O)NCC(=O)O)ncc23)ccn1 [Example 462],356
2,COC[C@H](Cc1ccccc1)NC(=O)Nc1cc2[nH]nc(-c3ccnc(C)c3)c2cn1 [Example 494],4.34
3,Cc1cc(-c2n[nH]c3cc(NC(=O)N[C@H](CO)c4ccc(F)cc4)ncc23)ccn1 [Example 346],88.2
4,Cc1cc(-c2n[nH]c3cc(NC(=O)N[C@@H]4CCN(C)C4)ncc23)ccn1 [Example 596],4.87
5,CCOc1ncccc1CNC(=O)Nc1cc2[nH]nc(-c3ccnc(C)c3)c2cn1 [Example 526],0.546
6,Cc1cc(-c2n[nH]c3cc(NC(=O)NC(CCN4CCCC4)c4ccncc4)ncc23)ccn1 (stereo not shown) [Example 378],55.6
7,Cc1cc(-c2n[nH]c3cc(NC(=O)N[C@H](COCC(F)F)c4ccccc4)ncc23)no1 [Example 701],4.57
8,Cc1cc(-c2n[nH]c3cc(NC(=O)NCC4(O)CC4)ncc23)ccn1 [Example 37],9.9
9,"C[C@@H](NC(=O)Nc1cc2[nH]nc(C3CC3)c2cn1)c1ccc(F)c(Cl)c1 [Example 82, 1-[(1R)-1-(3-chloro-4-fluorophenyl)ethyl]-3-(3-cyclopropyl-1H-pyrazolo[4,3-c]pyridin-6-yl)urea]",10.8
10,Cc1cc(-c2n[nH]c3cc(NC(=O)NC(C)c4ccc(F)c(F)c4)ncc23)ccn1 (stereo not shown) [Example 338],0.998
11,Cc1cc(-c2n[nH]c3cc(NC(=O)N[C@H](c4ccccc4)[C@H]4CCCO4)ncc23)ccn1 [Example 551],41.2

# The remaining compounds from weak to strong by IC50, led by results:
row,IC50 [nM],SMILES
1,51.9,Cc1cc(-c2n[nH]c3cc(NC(=O)NC4CCCC(Oc5cccc(F)c5)C4)ncc23)ccn1 (stereo not shown) [Example 659]
2,21.7,CC1=NOC(C)(CNC(=O)Nc2cc3[nH]nc(-c4ccnc(C)c4)c3cn2)C1 (stereo not shown) [Example 192]
3,15.2,"COc1ccc(CNC(=O)Nc2cc3[nH]nc(-c4ccc(F)cc4)c3cn2)cc1OC [Example 33, 1-(3,4-dimethoxybenzyl)-3-(3-(4-fluorophenyl)-1H-pyrazolo[4,3-c]pyridin-6-yl)urea]"
4,8.46,Cc1cc(-c2n[nH]c3cc(NC(=O)NC4CC(=O)Nc5ccc(F)cc54)ncc23)ccn1 (stereo not shown) [Example 396]
5,5.41,N#Cc1cccc(-c2n[nH]c3cc(NC(=O)NCc4ccc(F)cc4)ncc23)c1 [Example 673]
6,2.64,"C[C@@H](NC(=O)Nc1cc2[nH]nc(-c3ccnc(Cl)c3)c2cn1)c1ccc(F)c(Cl)c1 [Example 75, 1-[(1R)-1-(3-chloro-4-fluorophenyl)ethyl]-3-[3-(2-chloropyridin-4-yl)-1H-pyrazolo[4,3-c]pyridin-6-yl]urea]"
7,1.8,Cc1cncc(-c2n[nH]c3cc(NC(=O)N[C@H](C)c4ccc(F)cc4)ncc23)c1 [Example 308]
8,1.75,COC[C@@H](NC(=O)Nc1cc2[nH]nc(-c3ccnc(C#N)c3)c2cn1)c1ccc(F)cc1 [Example 304]
9,1.49,Cc1cc(-c2n[nH]c3cc(NC(=O)N[C@@H]4CCCc5ncccc54)ncc23)ccn1 [Example 261]
10,1.34,CCC(NC(=O)Nc1cc2[nH]nc(-c3ccnc(C)c3)c2cn1)c1ccccn1 (stereo not shown) [Example 347]
11,1,"O=C(NCc1ccc(F)c(Cl)c1)Nc1cc2[nH]nc(-c3ccnc(F)c3)c2cn1 [Example 58, 1-(3-chloro-4-fluorobenzyl)-3-[3-(2-fluoropyridin-4-yl)-1H-pyrazolo[4,3-c]pyridin-6-yl]urea]"
12,0.88,COC[C@@H](NC(=O)Nc1cc2[nH]nc(-c3cnc(OC)nc3)c2cn1)c1ccccc1 [Example 314]
13,0.783,C[C@@H](NC(=O)Nc1cc2[nH]nc(-c3ccc(N4CCOCC4)nc3)c2cn1)c1ccc(F)cc1 [Example 255]
14,0.762,Cc1cc(-c2n[nH]c3cc(NC(=O)NC4CCc5[nH]nc(C)c5C4)ncc23)ccn1 (stereo not shown) [Example 507]
15,0.72,Cc1nc2ccc(-c3n[nH]c4cc(NC(=O)N[C@H](C)c5ccccc5)ncc34)cc2o1 [Example 652]
16,0.581,C[C@@H](NC(=O)Nc1cc2[nH]nc(-c3ccc4nncn4c3)c2cn1)c1ccc(F)cc1 [Example 246]

# Same assay, conditions: read-out: AERK2 IC50 (Active human ERK2 Activity Assay)
row,IC50 [nM],SMILES
1,0.2 to 1.7,"O=C(NCc1ccc(F)c(Cl)c1)Nc1cc2[nH]nc(-c3ccnc(F)c3)c2cn1 [Example 58, 1-(3-chloro-4-fluorobenzyl)-3-[3-(2-fluoropyridin-4-yl)-1H-pyrazolo[4,3-c]pyridin-6-yl]urea]"
